Experimental data reported in patent publication US20250382344A1, “Soluble GLP1/GIP/NPY2 Receptor Triple Agonists” (Boehringer Ingelheim International GmH, priority 2024, published 2025).
Read-outs that look alike come from different tables or passages of the source.

Experiments:
[1] = biological target: T1, hGIPR (Homo sapiens, UniProt P48546); assay: hGIPR CreLuc assay in 0.5% and 100% plasma (CHO CRE-luciferase reporter cells); type: cell-based
T1 construct: expressed in transfected cells; host or cells: CHO CRE-luciferase reporter cells
T1 sequence (P48546 22-466): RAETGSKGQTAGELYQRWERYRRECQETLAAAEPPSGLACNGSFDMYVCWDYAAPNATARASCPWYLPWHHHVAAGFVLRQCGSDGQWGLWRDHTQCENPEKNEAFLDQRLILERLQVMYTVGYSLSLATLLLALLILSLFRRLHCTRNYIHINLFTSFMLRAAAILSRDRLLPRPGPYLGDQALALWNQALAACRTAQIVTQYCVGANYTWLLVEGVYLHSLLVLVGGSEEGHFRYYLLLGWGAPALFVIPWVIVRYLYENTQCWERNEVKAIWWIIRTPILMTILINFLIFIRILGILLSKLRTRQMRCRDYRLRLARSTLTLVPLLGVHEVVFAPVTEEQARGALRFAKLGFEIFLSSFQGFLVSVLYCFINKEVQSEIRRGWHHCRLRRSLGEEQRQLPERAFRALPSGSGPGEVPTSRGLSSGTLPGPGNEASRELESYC

[2] = biological target: T2, hGLP1R (Homo sapiens, UniProt P43220); assay: hGLP1R CreLuc assay in 0.5% and 100% plasma (HEK-293 CRE-luciferase reporter cells); type: cell-based; details: 0.5% human plasma, HEK-293 reporter cells, read-out: hGLP1R 0.5% hP
T2 construct: expressed in transfected cells; host or cells: HEK-293 CRE-luciferase reporter cells

[3] = Solubility in 0.1 M phosphate buffer at pH 7; type: physicochemical; details: 0.1 M phosphate buffer at pH 7, 10 mg/mL final peptide concentration, shaking 2 hours at room temperature, peptides as TFA-salts; measured sample pH 6.5-7.0
[4] = biological target: T3, hNPY2R (Homo sapiens, UniProt P49146); assay: hNPY2R CreLuc assay in 0.5% and 100% plasma (HEK-293 CRE-luciferase reporter cells); type: cell-based; details: HEK-293 reporter cells
T3 construct: expressed in transfected cells; host or cells: HEK-293 CRE-luciferase reporter cells
T3 sequence (P49146 1-381): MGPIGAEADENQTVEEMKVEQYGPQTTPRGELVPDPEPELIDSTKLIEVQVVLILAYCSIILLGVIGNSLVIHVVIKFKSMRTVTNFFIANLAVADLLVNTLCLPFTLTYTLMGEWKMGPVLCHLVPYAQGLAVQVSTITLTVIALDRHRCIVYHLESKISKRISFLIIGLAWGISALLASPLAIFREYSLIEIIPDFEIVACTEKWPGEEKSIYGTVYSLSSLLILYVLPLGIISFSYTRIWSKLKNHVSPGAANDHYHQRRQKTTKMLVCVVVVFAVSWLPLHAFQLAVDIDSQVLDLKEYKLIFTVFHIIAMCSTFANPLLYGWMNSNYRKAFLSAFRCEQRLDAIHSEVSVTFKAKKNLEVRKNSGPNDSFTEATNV

[5] = 0.5% human plasma, read-out: hGIPR 0.5% hP
[6] = 0.5% human plasma, read-out: hNPY2R 0.5% hP
[7] = 100% human plasma, read-out: hNPY2R 100% hP

T2 sequence (P43220 24-463): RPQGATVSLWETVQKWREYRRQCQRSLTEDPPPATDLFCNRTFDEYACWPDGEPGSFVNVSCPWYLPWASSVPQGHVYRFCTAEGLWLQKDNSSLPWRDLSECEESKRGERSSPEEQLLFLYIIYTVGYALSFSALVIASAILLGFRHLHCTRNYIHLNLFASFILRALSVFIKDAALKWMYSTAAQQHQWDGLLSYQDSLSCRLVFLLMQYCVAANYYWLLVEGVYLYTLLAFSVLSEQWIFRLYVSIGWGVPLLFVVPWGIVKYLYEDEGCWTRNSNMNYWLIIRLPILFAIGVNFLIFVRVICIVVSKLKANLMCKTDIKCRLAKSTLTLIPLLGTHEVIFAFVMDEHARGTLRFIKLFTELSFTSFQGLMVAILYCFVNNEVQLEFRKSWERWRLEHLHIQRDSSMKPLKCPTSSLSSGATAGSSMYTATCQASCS

Row | EC50 [1, 5] [nM] | EC50 [2] [nM] | solubility at 2 h [3] [µg/mL] | EC50 [4, 6] [nM] | EC50 [4, 7] [nM] | EC50 ([1]; 100% human plasma, read-out: hGIPR 100% hP) [nM] | SMILES
1 | 0.3 | 0.8 | 10000 | 19.9 | – | – | CC[C@H](C)[C@H](NC(=O)[C@H](CC(C)C)NC(=O)[C@H](Cc1c[nH]cn1)NC(=O)[C@H](CCCNC(=N)N)NC(=O)[C@@H](NC(=O)[C@H](Cc1ccccc1)NC(=O)[C@H](C)NC(=O)C(C)(C)NC(=O)[C@H](CCC(N)=O)NC(=O)[C@H](C)NC(=O)[C@H](CCC(N)=O)NC(=O)[C@H](CCCCN)NC(=O)[C@H](CCC(=O)O)NC(=O)[C@H](CC(C)C)NC(=O)C(C)(C)NC(=O)[C@@H](NC(=O)[C@H](CO)NC(=O)[C@H](Cc1ccc(O)cc1)NC(=O)[C@H](CC(=O)O)NC(=O)[C@H](CO)NC(=O)[C@@H](NC(=O)[C@H](Cc1ccccc1)NC(=O)[C@@H](NC(=O)CNC(=O)[C@H](CCC(=O)O)NC(=O)C(C)(C)NC(=O)[C@@H](N)Cc1ccc(O)cc1)[C@@H](C)O)[C@@H](C)O)[C@@H](C)CC)C(C)C)C(=O)N[C@@H](CC(N)=O)C(=O)N[C@@H](CCCCNC(=O)COCCOCCNC(=O)CC[C@H](NC(=O)CC[C@H](NC(=O)CC[C@H](NC(=O)CC[C@H](NC(=O)CC[C@H](NC(=O)CC[C@H](NC(=O)CCCCCCCCCCCCCCCCC(=O)O)C(=O)O)C(=O)O)C(=O)O)C(=O)O)C(=O)O)C(=O)O)C(=O)NC(C)(C)C(=O)N[C@H](C(=O)N[C@@H](CCCNC(=N)N)C(=O)N[C@@H](CCC(N)=O)C(=O)N[C@@H](CCCNC(=N)N)C(=O)N[C@@H](Cc1ccc(O)cc1)C(N)=O)[C@@H](C)O [Compound 47, Y-Aib-E-G-T-F-T-S-D-Y-S-I-Aib-L-E-K-Q-A-Q-Aib-A-F-V-R-H-L-I-N-K(1,3)-Aib-T-R-Q-R-Y-NH2.C18DA-gGlu-gGlu-gGlu-gGlu-gGlu-gGlu-OEG(1,2)]
2 | 0.7 | 0.7 | 4500 | – | 523 | – | CC[C@H](C)[C@H](NC(=O)[C@H](CC(C)C)NC(=O)[C@H](CCC(N)=O)NC(=O)[C@H](CCCNC(=N)N)NC(=O)[C@@H](NC(=O)[C@H](Cc1ccccc1)NC(=O)[C@H](C)NC(=O)C(C)(C)NC(=O)[C@H](CCC(N)=O)NC(=O)[C@H](C)NC(=O)[C@H](CCC(N)=O)NC(=O)[C@H](CCCCN)NC(=O)[C@H](CCC(=O)O)NC(=O)[C@H](CC(C)C)NC(=O)C(C)(C)NC(=O)[C@@H](NC(=O)[C@H](CO)NC(=O)[C@H](Cc1ccc(O)cc1)NC(=O)[C@H](CC(=O)O)NC(=O)[C@H](CO)NC(=O)[C@@H](NC(=O)[C@H](Cc1ccccc1)NC(=O)[C@@H](NC(=O)CNC(=O)[C@H](CCC(=O)O)NC(=O)C(C)(C)NC(=O)[C@@H](N)Cc1ccc(O)cc1)[C@@H](C)O)[C@@H](C)O)[C@@H](C)CC)C(C)C)C(=O)N[C@@H](CC(N)=O)C(=O)N[C@@H](CCCCNC(=O)CC[C@H](NC(=O)CC[C@H](NC(=O)CC[C@H](NC(=O)CC[C@H](NC(=O)CC[C@H](NC(=O)CCCCCCCCCCCCCCCCC(=O)O)C(=O)O)C(=O)O)C(=O)O)C(=O)O)C(=O)O)C(=O)NC(C)(C)C(=O)N[C@H](C(=O)N[C@@H](CCCNC(=N)N)C(=O)N[C@@H](CCC(N)=O)C(=O)N[C@@H](CCCNC(=N)N)C(=O)N[C@@H](Cc1ccc(O)cc1)C(N)=O)[C@@H](C)O [Compound 50, Y-Aib-E-G-T-F-T-S-D-Y-S-I-Aib-L-E-K-Q-A-Q-Aib-A-F-V-R-Q-L-I-N-K(1,3)-Aib-T-R-Q-R-Y-NH2.C18DA-gGlu-gGlu-gGlu-gGlu-gGlu(1,2)]
3 | 0.5 | 0.5 | 4800 | 162 | – | – | CC[C@H](C)[C@H](NC(=O)[C@H](CC(C)C)NC(=O)[C@H](Cc1c[nH]cn1)NC(=O)[C@H](CCCNC(=N)N)NC(=O)[C@@H](NC(=O)[C@H](Cc1ccccc1)NC(=O)[C@H](CCC(=O)O)NC(=O)C(C)(C)NC(=O)[C@H](CCC(N)=O)NC(=O)[C@H](C)NC(=O)[C@H](CCC(=O)O)NC(=O)[C@H](CCC(=O)O)NC(=O)[C@H](CCC(=O)O)NC(=O)[C@H](CC(C)C)NC(=O)C(C)(C)NC(=O)[C@@H](NC(=O)[C@H](CO)NC(=O)[C@H](Cc1ccc(O)cc1)NC(=O)[C@H](CC(=O)O)NC(=O)[C@H](CO)NC(=O)[C@@H](NC(=O)[C@H](Cc1ccccc1)NC(=O)[C@@H](NC(=O)CNC(=O)[C@H](CCC(=O)O)NC(=O)C(C)(C)NC(=O)[C@@H](N)Cc1ccc(O)cc1)[C@@H](C)O)[C@@H](C)O)[C@@H](C)CC)C(C)C)C(=O)N[C@@H](CC(N)=O)C(=O)N[C@@H](CCCCNC(=O)CC[C@H](NC(=O)CC[C@H](NC(=O)CC[C@H](NC(=O)CC[C@H](NC(=O)CCCCCCCCCCCCCCCCC(=O)O)C(=O)O)C(=O)O)C(=O)O)C(=O)O)C(=O)NC(C)(C)C(=O)N[C@H](C(=O)N[C@@H](CCCNC(=N)N)C(=O)N[C@@H](CCC(N)=O)C(=O)N[C@@H](CCCNC(=N)N)C(=O)N[C@@H](Cc1ccc(O)cc1)C(N)=O)[C@@H](C)O [Compound 64, Y-Aib-E-G-T-F-T-S-D-Y-S-I-Aib-L-E-E-E-A-Q-Aib-E-F-V-R-H-L-I-N-K(1,3)-Aib-T-R-Q-R-Y-NH2.C18DA-gGlu-gGlu-gGlu-gGlu(1,2)]
4 | 0.2 | 0.2 | 9100 | – | 119 | – | CC[C@H](C)[C@H](NC(=O)[C@H](CC(C)C)NC(=O)[C@H](Cc1c[nH]cn1)NC(=O)[C@H](CCCNC(=N)N)NC(=O)[C@@H](NC(=O)[C@H](Cc1ccccc1)NC(=O)[C@H](C)NC(=O)C(C)(C)NC(=O)[C@H](CCC(N)=O)NC(=O)[C@H](C)NC(=O)[C@H](CCC(N)=O)NC(=O)[C@H](CCC(N)=O)NC(=O)[C@H](CC(=O)O)NC(=O)[C@H](CC(C)C)NC(=O)C(C)(C)NC(=O)[C@@H](NC(=O)[C@H](CO)NC(=O)[C@H](Cc1ccc(O)cc1)NC(=O)[C@H](CC(=O)O)NC(=O)[C@H](CO)NC(=O)[C@@H](NC(=O)[C@H](Cc1ccccc1)NC(=O)[C@@H](NC(=O)CNC(=O)[C@H](CCC(=O)O)NC(=O)C(C)(C)NC(=O)[C@@H](N)Cc1ccc(O)cc1)[C@@H](C)O)[C@@H](C)O)[C@@H](C)CC)C(C)C)C(=O)N[C@@H](CC(N)=O)C(=O)N[C@@H](CCCCNC(=O)[C@@H](N)CCCCNC(=O)CC[C@H](NC(=O)CC[C@H](NC(=O)CC[C@H](NC(=O)CC[C@H](NC(=O)CC[C@H](NC(=O)CCCCCCCCCCCCCCCCC(=O)O)C(=O)O)C(=O)O)C(=O)O)C(=O)O)C(=O)O)C(=O)NC(C)(C)C(=O)N[C@H](C(=O)N[C@@H](CCCNC(=N)N)C(=O)N[C@@H](CCC(N)=O)C(=O)N[C@@H](CCCNC(=N)N)C(=O)N[C@@H](Cc1ccc(O)cc1)C(N)=O)[C@@H](C)O [Compound 70, Y-Aib-E-G-T-F-T-S-D-Y-S-I-Aib-L-D-Q-Q-A-Q-Aib-A-F-V-R-H-L-I-N-K(1,3)-Aib-T-R-Q-R-Y-NH2.C18DA-gGlu-gGlu-gGlu-gGlu-gGlu-eLys(1,2)]
5 | 0.4 | 0.4 | 4900 | – | 136 | 5.9 | CC[C@H](C)[C@H](NC(=O)[C@H](CC(C)C)NC(=O)[C@H](Cc1c[nH]cn1)NC(=O)[C@H](CCCNC(=N)N)NC(=O)[C@@H](NC(=O)[C@H](Cc1ccccc1)NC(=O)[C@H](CCC(=O)O)NC(=O)C(C)(C)NC(=O)[C@H](CCC(N)=O)NC(=O)[C@H](C)NC(=O)[C@H](CCC(N)=O)NC(=O)[C@H](CCCCN)NC(=O)[C@H](CCC(=O)O)NC(=O)[C@H](CC(C)C)NC(=O)C(C)(C)NC(=O)[C@@H](NC(=O)[C@H](CO)NC(=O)[C@H](Cc1ccc(O)cc1)NC(=O)[C@H](CC(=O)O)NC(=O)[C@H](CO)NC(=O)[C@@H](NC(=O)[C@H](Cc1ccccc1)NC(=O)[C@@H](NC(=O)CNC(=O)[C@H](CCC(=O)O)NC(=O)C(C)(C)NC(=O)[C@@H](N)Cc1ccc(O)cc1)[C@@H](C)O)[C@@H](C)O)[C@@H](C)CC)C(C)C)C(=O)N[C@@H](CC(N)=O)C(=O)N[C@@H](CCCCNC(=O)COCCOCCNC(=O)COCCOCCNC(=O)CC[C@H](NC(=O)CC[C@H](NC(=O)CC[C@H](NC(=O)CC[C@H](NC(=O)CCCCCCCCCCCCCCCCC(=O)O)C(=O)O)C(=O)O)C(=O)O)C(=O)O)C(=O)NC(C)(C)C(=O)N[C@H](C(=O)N[C@@H](CCCNC(=N)N)C(=O)N[C@@H](CCC(N)=O)C(=O)N[C@@H](CCCNC(=N)N)C(=O)N[C@@H](Cc1ccc(O)cc1)C(N)=O)[C@@H](C)O [Compound 73, Y-Aib-E-G-T-F-T-S-D-Y-S-I-Aib-L-E-K-Q-A-Q-Aib-E-F-V-R-H-L-I-N-K(1,3)-Aib-T-R-Q-R-Y-NH2.C18DA-gGlu-gGlu-gGlu-gGlu-OEG-OEG(1,2)]
